In assay [1] the test system is HCV genotype 1a (H77 strain) replicon in HUH-7 cells. Put plainly: HCV replicon luciferase reporter assay, genotype 1a. The assay is classed as cell-based. Conditions: Hepatitis C virus, Huh-7, 72 h, HCV genotype 1a replicon luciferase, 3 days incubation. The essentials:
(§1)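 Replicon inhibition for both genotypes was measured as Renilla luciferase signal (EnduRen, 7.5 μM final, 2 h) after 3-day, 37° C exposure of replicon-bearing HUH-7 cells in 4% FCS DMEM, 0.5% DMSO. The 1b construct carries S1179I; the 1a H77 construct carries P1496L and S2204I. Twenty-point, 3-fold dilutions were fitted four-parametrically for EC50, and CC50 was taken from multiplexed Cell Titer-Blue.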

Assay [2] concerns HCV genotype 1b (Con1) replicon in HUH-7 cells. Put plainly: HCV replicon luciferase reporter assay, genotype 1b. Type of assay: cell-based. Conditions: Hepatitis C virus, Huh-7, 72 h, HCV genotype 1b replicon luciferase, 3 days incubation. Put shortly: as §1

Each structure is given as a SMILES string. Like-named read-outs stand apart in the source and are kept apart here.

This passage reports EC50 results from patent US9499550B2 (BRISTOL-MYERS SQUIBB COMPANY, priority 2012, dated 2016).

With `CCCOc1cnc(O[C@@H]2C[C@H]3C(=O)N[C@]4(C(=O)NS(=O)(=O)C5(C)CC5)C[C@H]4/C=C\CC[C@@H](C)C[C@@H](C)[C@H](NC(=O)NC(C)(C)C(F)(F)F)C(=O)N3C2)c2ccccc12` [Compound 5087, (2R,6S,7R,9R,13aS,14aR,16aS,Z)-7,9-dimethyl-N-((1-methylcyclopropyl)sulfonyl)-5,16-dioxo-2-((4-propoxyisoquinolin-1-yl)oxy)-6-(3-(1,1,1-trifluoro-2-methylpropan-2-yl)ureido)-1,2,3,5,6,7,8,9,10,11,13a,14,14a,15,16,16a-hexadecahydrocyclopropa[e]pyrrolo[1,2-a][1,4]diazacyclopentadecine-14a-carboxamide], the EC50 in assay [1] (read-out: LE_1a (EC50, range)) is less than 5.46 nM; in assay [2] (read-out: LE_1b (EC50, range)), less than 5.46 nM.

For the molecule `CCCOc1cnc(O[C@@H]2C[C@H]3C(=O)N[C@]4(C(=O)NS(=O)(=O)C5CC5)C[C@H]4/C=C\CC[C@H](C)C[C@@H](C)[C@H](NC(=O)OC(C)(C)C)C(=O)N3C2)c2ccccc12` [Compound 5088, tert-butyl ((2R,6S,7R,9S,13aS,14aR,16aS,Z)-14a-((cyclopropylsulfonyl)carbamoyl)-7,9-dimethyl-5,16-dioxo-2-((4-propoxyisoquinolin-1-yl)oxy)-1,2,3,5,6,7,8,9,10,11,13a,14,14a,15,16,16a-hexadecahydrocyclopropa[e]pyrrolo[1,2-a][1,4]diazacyclopentadecin-6-yl)carbamate], the concentration for a half-maximal effect (EC50) is 103 nM in assay [1] (read-out: LE_1a (EC50)); more than 87.4 nM in assay [1] (read-out: LE_1a (EC50, range)); 20.3 nM in assay [2] (read-out: LE_1b (EC50)); 4.82 to 103 nM in assay [2] (read-out: LE_1b (EC50, range)).

As for `CCCOc1cnc(O[C@@H]2C[C@H]3C(=O)N[C@]4(C(=O)NS(=O)(=O)C5CC5)C[C@H]4/C=C\CC[C@@H](C)C[C@@H](C)[C@H](NC(=O)OC(C)(C)C)C(=O)N3C2)c2ccccc12` [Compound 5089, tert-butyl ((2R,6S,7R,9R,13aS,14aR,16aS,Z)-14a-((cyclopropylsulfonyl)carbamoyl)-7,9-dimethyl-5,16-dioxo-2-((4-propoxyisoquinolin-1-yl)oxy)-1,2,3,5,6,7,8,9,10,11,13a,14,14a,15,16,16a-hexadecahydrocyclopropa[e]pyrrolo[1,2-a][1,4]diazacyclopentadecin-6-yl)carbamate], the EC50 in assay [1] (read-out: LE_1a (EC50, range)) was less than 5.46 nM; in assay [2] (read-out: LE_1b (EC50, range)) it was less than 5.46 nM.

Regarding `CCCOc1cnc(O[C@@H]2C[C@H]3C(=O)N[C@]4(C(=O)NS(=O)(=O)C5CC5)C[C@H]4/C=C\CC[C@H](C)C[C@@H](C)[C@H](NC(=O)OC(C)(C)C(F)(F)F)C(=O)N3C2)c2ccccc12` [Compound 5090, 1,1,1-trifluoro-2-methylpropan-2-yl((2R,6S,7R,9S,13aS,14aR,16aS,Z)-14a-((cyclopropylsulfonyl)carbamoyl)-7,9-dimethyl-5,16-dioxo-2-((4-propoxyisoquinolin-1-yl)oxy)-1,2,3,5,6,7,8,9,10,11,13a,14,14a,15,16,16a-hexadecahydrocyclopropa[e]pyrrolo[1,2-a][1,4]diazacyclopentadecin-6-yl)carbamate], the EC50 in assay [1] (read-out: LE_1a (EC50)) was 522 nM; in assay [1] (read-out: LE_1a (EC50, range)), more than 87.4 nM; in assay [2] (read-out: LE_1b (EC50)) it was 87.4 nM; in assay [2] (read-out: LE_1b (EC50, range)) it was 4.82 to 103 nM.

In the case of `CCCOc1cnc(O[C@@H]2C[C@H]3C(=O)N[C@]4(C(=O)NS(=O)(=O)C5CC5)C[C@H]4/C=C\CC[C@H](C)C[C@@H](C)[C@H](NC(=O)O[C@@H]4C[C@@H]5C[C@@H]5C4)C(=O)N3C2)c2ccccc12` [Compound 5092, (1R,3r,5S)-bicyclo[3.1.0]hexan-3-yl((2R,6S,7R,9S,13aS,14aR,16aS,Z)-14a-((cyclopropylsulfonyl)carbamoyl)-7,9-dimethyl-5,16-dioxo-2-((4-propoxyisoquinolin-1-yl)oxy)-1,2,3,5,6,7,8,9,10,11,13a,14,14a,15,16,16a-hexadecahydrocyclopropa[e]pyrrolo[1,2-a][1,4]diazacyclopentadecin-6-yl)carbamate], the EC50 in assay [1] (read-out: LE_1a (EC50, range)) is more than 87.4 nM; in assay [2] (read-out: LE_1b (EC50, range)) it was 4.82 to 103 nM.

With `CCCOc1cnc(O[C@@H]2C[C@H]3C(=O)N[C@]4(C(=O)NS(=O)(=O)C5CC5)C[C@H]4/C=C\CC[C@@H](C)C[C@@H](C)[C@H](NC(=O)O[C@@H]4C[C@@H]5C[C@@H]5C4)C(=O)N3C2)c2ccccc12` [Compound 5093, (1R,3r,5S)-bicyclo[3.1.0]hexan-3-yl((2R,6S,7R,9R,13aS,14aR,16aS,Z)-14a-((cyclopropylsulfonyl)carbamoyl)-7,9-dimethyl-5,16-dioxo-2-((4-propoxyisoquinolin-1-yl)oxy)-1,2,3,5,6,7,8,9,10,11,13a,14,14a,15,16,16a-hexadecahydrocyclopropa[e]pyrrolo[1,2-a][1,4]diazacyclopentadecin-6-yl)carbamate], the EC50 in assay [1] (read-out: LE_1a (EC50, range)) was 4.82 to 103 nM; in assay [2] (read-out: LE_1b (EC50, range)) it was less than 5.46 nM.

Turning to `CCCOc1cnc(O[C@@H]2C[C@H]3C(=O)N[C@]4(C(=O)NS(=O)(=O)C5CC5)C[C@H]4/C=C\CC[C@H](C)C[C@@H](C)[C@H](NC(=O)O[C@H](C)C(F)(F)F)C(=O)N3C2)c2ccccc12` [Compound 5094, (R)-1,1,1-trifluoropropan-2-yl((2R,6S,7R,9S,13aS,14aR,16aS,Z)-14a-((cyclopropylsulfonyl)carbamoyl)-7,9-dimethyl-5,16-dioxo-2-((4-propoxyisoquinolin-1-yl)oxy)-1,2,3,5,6,7,8,9,10,11,13a,14,14a,15,16,16a-hexadecahydrocyclopropa[e]pyrrolo[1,2-a][1,4]diazacyclopentadecin-6-yl)carbamate], the EC50 in assay [1] (read-out: LE_1a (EC50, range)) was more than 87.4 nM; in assay [2] (read-out: LE_1b (EC50, range)), more than 87.4 nM.

For `CCCOc1cnc(O[C@@H]2C[C@H]3C(=O)N[C@]4(C(=O)NS(=O)(=O)C5CC5)C[C@H]4/C=C\CC[C@@H](C)C[C@@H](C)[C@H](NC(=O)O[C@H](C)C(F)(F)F)C(=O)N3C2)c2ccccc12` [Compound 5095, (R)-1,1,1-trifluoropropan-2-yl((2R,6S,7R,9R,13aS,14aR,16aS,Z)-14a-((cyclopropylsulfonyl)carbamoyl)-7,9-dimethyl-5,16-dioxo-2-((4-propoxyisoquinolin-1-yl)oxy)-1,2,3,5,6,7,8,9,10,11,13a,14,14a,15,16,16a-hexadecahydrocyclopropa[e]pyrrolo[1,2-a][1,4]diazacyclopentadecin-6-yl)carbamate], the EC50 in assay [1] (read-out: LE_1a (EC50, range)) fell in the range of 4.82 to 103 nM; in assay [2] (read-out: LE_1b (EC50, range)), 4.82 to 103 nM.

Consider `CCCOc1cnc(O[C@@H]2C[C@H]3C(=O)N[C@]4(C(=O)NS(=O)(=O)C5CC5)C[C@H]4/C=C\CC[C@H](C)C[C@@H](C)[C@H](NC(=O)OCC4(C)CC4)C(=O)N3C2)c2ccccc12` [Compound 5096, (1-methylcyclopropyl)methyl ((2R,6S,7R,9S,13aS,14aR,16aS,Z)-14a-((cyclopropylsulfonyl)carbamoyl)-7,9-dimethyl-5,16-dioxo-2-((4-propoxyisoquinolin-1-yl)oxy)-1,2,3,5,6,7,8,9,10,11,13a,14,14a,15,16,16a-hexadecahydrocyclopropa[e]pyrrolo[1,2-a][1,4]diazacyclopentadecin-6-yl)carbamate], for which the EC50 in assay [1] (read-out: LE_1a (EC50, range)) was more than 87.4 nM; in assay [2] (read-out: LE_1b (EC50, range)), 4.82 to 103 nM.

With `CCCOc1cnc(O[C@@H]2C[C@H]3C(=O)N[C@]4(C(=O)NS(=O)(=O)C5CC5)C[C@H]4/C=C\CC[C@@H](C)C[C@@H](C)[C@H](NC(=O)OCC4(C)CC4)C(=O)N3C2)c2ccccc12` [Compound 5097, (1-methylcyclopropyl)methyl ((2R,6S,7R,9R,13aS,14aR,16aS,Z)-14a-((cyclopropylsulfonyl)carbamoyl)-7,9-dimethyl-5,16-dioxo-2-((4-propoxyisoquinolin-1-yl)oxy)-1,2,3,5,6,7,8,9,10,11,13a,14,14a,15,16,16a-hexadecahydrocyclopropa[e]pyrrolo[1,2-a][1,4]diazacyclopentadecin-6-yl)carbamate], the EC50 in assay [1] (read-out: LE_1a (EC50, range)) is less than 5.46 nM; in assay [2] (read-out: LE_1b (EC50, range)) it was less than 5.46 nM.

As for `CCCOc1cnc(O[C@@H]2C[C@H]3C(=O)N[C@]4(C(=O)NS(=O)(=O)C5CC5)C[C@H]4/C=C\CC[C@H](C)C[C@@H](C)[C@H](NC(=O)NC(C)(C)C(F)(F)F)C(=O)N3C2)c2ccccc12` [Compound 5098, (2R,6S,7R,9S,13aS,14aR,16aS,Z)—N-(cyclopropylsulfonyl)-7,9-dimethyl-5,16-dioxo-2-((4-propoxyisoquinolin-1-yl)oxy)-6-(3-(1,1,1-trifluoro-2-methylpropan-2-yl)ureido)-1,2,3,5,6,7,8,9,10,11,13a,14,14a,15,16,16a-hexadecahydrocyclopropa[e]pyrrolo[1,2-a][1,4]diazacyclopentadecine-14a-carboxamide], the EC50 is more than 87.4 nM in assay [1] (read-out: LE_1a (EC50, range)) and more than 87.4 nM in assay [2] (read-out: LE_1b (EC50, range)).

As to `CCCOc1cnc(O[C@@H]2C[C@H]3C(=O)N[C@]4(C(=O)NS(=O)(=O)C5CC5)C[C@H]4/C=C\CC[C@@H](C)C[C@@H](C)[C@H](NC(=O)NC(C)(C)C(F)(F)F)C(=O)N3C2)c2ccccc12` [Compound 5099, (2R,6S,7R,9R,13aS,14aR,16aS,Z)—N-(cyclopropylsulfonyl)-7,9-dimethyl-5,16-dioxo-2-((4-propoxyisoquinolin-1-yl)oxy)-6-(3-(1,1,1-trifluoro-2-methylpropan-2-yl)ureido)-1,2,3,5,6,7,8,9,10,11,13a,14,14a,15,16,16a-hexadecahydrocyclopropa[e]pyrrolo[1,2-a][1,4]diazacyclopentadecine-14a-carboxamide], the EC50 was less than 5.46 nM in assay [1] (read-out: LE_1a (EC50, range)) and less than 5.46 nM in assay [2] (read-out: LE_1b (EC50, range)).
